Data as given in US4595535A, “Diazacycloalkyl-1,2,4-triazolo[2,3-c][1,3]benzodiazepines useful as neuroleptic and/or antihistaminic agents” (Ciba-Geigy Corporation, priority 1984, dated 1986).

Assays:
[1] = test system: avoidance behaviour in rats; experiment: conditioned avoidance behaviour (lever press to avoid foot shock), rats; type: in vivo; conditions: Rattus norvegicus, oral, read-out: oral dose that disrupts avoidance behaviour (decreases avoidance responses)
Procedure: (§1) Each lever press postpones the shock for 30 seconds. Whenever the animal fails to press the lever once within said period, brief (0.5 sec.) shocks are delivered at 15 second intervals until the animal again presses the lever. Under control conditions the animals press the lever at a moderately steady rate and seldom receive more than five or six shocks during a 25-minute (rats) and up to 4-hour experimental session. Said compounds evaluated for neuroleptic activity, are administered to the animals 30, 90, 210 minutes prior to the experimental session and block the learned conditioned avoidance behaviour, manifested by a decrease in avoidance responding with a marked increase in shocks taken by the animal. Both the avoidance responses and failures (shocks received) are recorded separately for evaluation.
(§2) Indicative of the antipsychotic utility of the compounds of this invention, e.g. the compound of example 1, namely 2-methyl-5-(4-methyl-1-piperazinyl)-11H-1,2,4-triazolo[2,3-c][1,3]benzodiazepine maleate, disrupts avoidance behaviour, e.g. decreases avoidance responses in rats and monkeys at an oral dose of about 1.0 mg/kg or lower.

[2] = biological target: histamine activation of adenylate cyclase; experiment: inhibition of histamine activation of adenylate cyclase in vesicles from guinea pig cerebral cortex; type: biochemical; conditions: 50 micromolar histamine, 3H-cyclic AMP synthesis
Procedure: Finally, said antihistaminic properties can be shown in vitro, e.g., according to Chasin et al., J. Neurochem. 22, 1031 (1974). Vesicles from a cell free preparation of guinea pig cerebral cortex are preincubated with ^3 H-adenine to form endogenous ^3 H-adenosine triphosphate. The vesicles are then incubated with 50 micromolar histamine to activate ^3 H-cyclic adenosine monophosphate synthesis in the absence or presence of the test compound at a concentration between 0.01 and 100 micromolar. When said compound is active, it inhibits the histamine activation of adenylate cyclase. The IC50 represents the concentration at which histamine activation is inhibited by 50%.

[3] = test system: extrapyramidal side effects, e.g. dyskinesias and dystonias; experiment: extrapyramidal side effects in the monkey; type: in vivo; conditions: at effective antipsychotic doses
[4] = test system: avoidance behaviour in monkeys; experiment: conditioned avoidance behaviour (lever press to avoid foot shock), monkeys; type: in vivo, squirrel monkeys; conditions: Primates, oral, read-out: oral dose that disrupts avoidance behaviour (decreases avoidance responses)
Procedure: as §1, §2

`Cc1nc2n(n1)C(N1CCN(C)CC1)=Nc1ccccc1C2.O=C(O)/C=C\C(=O)O` [Example 1, 2-methyl-5-(4-methyl-1-piperazinyl)-11H-1,2,4-triazolo[2,3-c][1,3]-benzodiazepine monomaleate] was tested, and the minimal effective dose [1] was ≤ 1 mg/kg, the IC50 [2] was ~300 nM and the “extrapyramidal side effects, e.g. dyskinesias and dystonias” value [3] was “essentially free of extrapyramidal side effects”. For the same molecule, the minimal effective dose [4] was ≤ 1 mg/kg.
